{"source": "patent US20130190309A1", "about": "“PHTHALAZINONE AND RELATED ANALOGS AS SIRTUIN MODULATORS” (priority 2009, published 2013)", "target": "T1, SIRT1 (Homo sapiens, UniProt Q96EB6)", "T1 sequence (Q96EB6 1-747)": "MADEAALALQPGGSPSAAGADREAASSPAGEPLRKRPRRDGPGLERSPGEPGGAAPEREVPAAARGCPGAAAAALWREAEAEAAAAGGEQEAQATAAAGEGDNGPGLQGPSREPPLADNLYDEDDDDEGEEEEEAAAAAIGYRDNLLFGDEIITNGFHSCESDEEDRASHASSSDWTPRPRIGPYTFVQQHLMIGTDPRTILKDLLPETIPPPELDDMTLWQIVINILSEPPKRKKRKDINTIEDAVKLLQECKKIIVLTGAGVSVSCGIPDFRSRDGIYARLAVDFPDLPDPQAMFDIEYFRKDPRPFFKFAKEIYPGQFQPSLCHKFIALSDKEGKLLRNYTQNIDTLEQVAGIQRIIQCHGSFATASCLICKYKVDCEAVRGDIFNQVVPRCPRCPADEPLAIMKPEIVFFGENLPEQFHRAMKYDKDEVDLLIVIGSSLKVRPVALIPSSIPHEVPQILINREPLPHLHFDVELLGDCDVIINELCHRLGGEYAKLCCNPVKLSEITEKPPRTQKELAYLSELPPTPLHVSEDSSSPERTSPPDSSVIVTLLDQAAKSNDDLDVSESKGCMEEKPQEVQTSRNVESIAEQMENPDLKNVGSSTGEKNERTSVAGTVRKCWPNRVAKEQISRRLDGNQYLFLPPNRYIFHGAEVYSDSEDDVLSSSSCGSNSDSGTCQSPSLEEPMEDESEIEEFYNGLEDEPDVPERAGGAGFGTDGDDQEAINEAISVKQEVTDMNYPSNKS", "assay": "Mass spectrometry based SIRT1 deacetylase activation assay", "type": "biochemical", "conditions": "for Emax: 25 min, percent maximum fold activation of SIRT1, read-out: SIRT1 % FOLD ACT.; for EC1.5 (concentration giving 150% activation): concentration of test compound that results in 150% activation of SIRT1", "excerpt": "A mass spectrometry based assay was used to identify modulators of SIRT1 activity. The mass spectrometry based assay utilizes a peptide having 20 amino acid residues as follows: Ac-EE-K(biotin)-GQSTSSHSK(Ac)NleSTEG-K(5TMR)-EE-NH2 (SEQ ID NO: 1) wherein K(Ac) is an acetylated lysine residue and Nle is a norleucine. The peptide is labeled with the fluorophore 5TMR (excitation 540 nm/emission 580 nm) at the C-terminus. The sequence of the peptide substrate is based on p53 with several modifications. In addition, the methionine residue naturally present in the sequence was replaced with the norleucine because the methionine may be susceptible to oxidation during synthesis and purification.\nThe mass spectrometry assay is conducted as follows: 0.5 μM peptide substrate and 120 μM βNAD^+ is incubated with 10 nM SIRT1 for 25 minutes at 25° C. in a reaction buffer (50 mM Tris-acetate pH 8, 137 mM NaCl, 2.7 mM KCl, 1 mM MgCl2, 5 mM DTT, 0.05% BSA). Test compounds may be added to the reaction as described above. The SirT1 gene is cloned into a T7-promoter containing vector and transformed into BL21(DE3). After the 25 minute incubation with SIRT1, 10 μL of 10% formic acid is added to stop the reaction. Reactions are sealed and frozen for later mass spec analysis. Determination of the mass of the substrate peptide allows for precise determination of the degree of acetylation (i.e. starting material) as compared to deacetylated peptide (product).\nA control for inhibition of sirtuin activity is conducted by adding 1 μL of 500 mM nicotinamide as a negative control at the start of the reaction (e.g., permits determination of maximum sirtuin inhibition). A control for activation of sirtuin activity is conducted using 10 nM of sirtuin protein, with 1 μL of DMSO in place of compound, to determine the amount of deacetylation of the substrate at a given timepoint within the linear range of the assay. This timepoint is the same as that used for test compounds and, within the linear range, the endpoint represents a change in velocity.\nFor the above assay, SIRT1 protein was expressed and purified as follows. The SirT1 gene was cloned into a T7-promoter containing vector and transformed into BL21(DE3). The protein was expressed by induction with 1 mM IPTG as an N-terminal His-tag fusion protein at 18° C. overnight and harvested at 30,000×g. Cells were lysed with lysozyme in lysis buffer (50 mM Tris-HCl, 2 mM Tris[2-carboxyethyl]phosphine (TCEP), 10 μM ZnCl2, 200 mM NaCl) and further treated with sonication for 10 min for complete lysis. The protein was purified over a Ni-NTA column (Amersham) and fractions containing pure protein were pooled, concentrated and run over a sizing column (Sephadex S200 26/60 global). The peak containing soluble protein was collected and run on an Ion-exchange column (MonoQ). Gradient elution (200 mM-500 mM NaCl) yielded pure protein. This protein was concentrated and dialyzed against dialysis buffer (20 mM Tris-HCl, 2 mM TCEP) overnight. The protein was aliquoted and frozen at −80° C. until further use.\nSirtuin modulating compounds that activated SIRT1 were identified using the assay described above and are shown below in Table 1. The EC1.5 values represent the concentration of test compounds that result in 150% activation of SIRT1. The EC1.5 values for the activating compounds are represented by A (EC1.5 <5 μM), B (EC1.5 5-50 μM), or C (EC1.5 >50 μM). The percent maximum fold activation is represented by A (Fold activation >150%) or B (Fold Activation <150%).", "data": [{"smiles": "O=C(Nc1cccc2cnn(-c3cccc(C(F)(F)F)c3)c(=O)c12)c1cccc(OCC(O)CO)n1", "note": "(centres unmarked) [Compound 105, 6-(2,3-dihydroxypropoxy)-N-(4-oxo-3-(3-(trifluoromethyl)phenyl)-3,4-dihydrophthalazin-5-yl)picolinamide]", "values": [{"measurement": "Emax", "value": "> 150", "unit": "%"}, {"measurement": "EC1.5 (concentration giving 150% activation)", "value": "< 5", "unit": "µM"}]}, {"smiles": "O=C(Nc1cccc2cnn(-c3cccc(C(F)(F)F)c3)c(=O)c12)C1CCOCC1", "note": "[Compound 104]", "values": [{"measurement": "EC1.5 (concentration giving 150% activation)", "value": "> 50", "unit": "µM"}]}, {"smiles": "O=C(Nc1cccc2c1C(=O)N(c1cccc(C(F)(F)F)c1)CC2)c1cscn1", "note": "[Compound 100]", "values": [{"measurement": "Emax", "value": "> 150", "unit": "%"}, {"measurement": "EC1.5 (concentration giving 150% activation)", "value": "5 to 50", "unit": "µM"}]}, {"smiles": "O=C(Nc1cccc2cnn(-c3cccc(C(F)(F)F)c3)c(=O)c12)c1cnccn1", "note": "[Compound 103, N-(4-oxo-3-(3-(trifluoromethyl)phenyl)-3,4-dihydrophthalazin-5-yl)pyrazine-2-carboxamide]", "values": [{"measurement": "Emax", "value": "> 150", "unit": "%"}, {"measurement": "EC1.5 (concentration giving 150% activation)", "value": "5 to 50", "unit": "µM"}]}, {"smiles": "O=C(Nc1cccc2cnn(-c3cccc(OC(F)(F)F)c3)c(=O)c12)c1cccc(OCC(O)CO)n1", "note": "(centres unmarked) [Compound 107, 6-(2,3-dihydroxypropoxy)-N-(4-oxo-3-(3-(trifluoromethoxy)phenyl)-3,4-dihydrophthalazin-5-yl)picolinamide]", "values": [{"measurement": "Emax", "value": "> 150", "unit": "%"}, {"measurement": "EC1.5 (concentration giving 150% activation)", "value": "< 5", "unit": "µM"}]}, {"smiles": "O=C(Nc1cccc2cnn(-c3cccc(OC(F)(F)F)c3)c(=O)c12)c1cccc(CN2CCOCC2)n1", "note": "[Compound 108, 6-(morpholinomethyl)-N-(4-oxo-3-(3-(trifluoromethoxy)phenyl)-3,4-dihydrophthalazin-5-yl)picolinamide]", "values": [{"measurement": "Emax", "value": "> 150", "unit": "%"}, {"measurement": "EC1.5 (concentration giving 150% activation)", "value": "< 5", "unit": "µM"}]}, {"smiles": "O=C(Nc1cccc2c1C(=O)N(c1cccc(C(F)(F)F)c1)CC2)c1cnccn1", "note": "[Compound 101, N-(1-oxo-2-(3-(trifluoromethyl)phenyl)-1,2,3,4-tetrahydroisoquinolin-8-yl)pyrazine-2-carboxamide]", "values": [{"measurement": "Emax", "value": "> 150", "unit": "%"}, {"measurement": "EC1.5 (concentration giving 150% activation)", "value": "5 to 50", "unit": "µM"}]}, {"smiles": "O=C(Nc1cccc2cnn(-c3cccc(C(F)(F)F)c3)c(=O)c12)c1cccc(CN2CCOCC2)n1", "note": "[Compound 106, 6-(morpholinomethyl)-N-(4-oxo-3-(3-(trifluoromethyl)phenyl)-3,4-dihydrophthalazin-5-yl)picolinamide]", "values": [{"measurement": "Emax", "value": "> 150", "unit": "%"}, {"measurement": "EC1.5 (concentration giving 150% activation)", "value": "< 5", "unit": "µM"}]}, {"smiles": "O=C(Nc1cccc2cnn(-c3cccc(C(F)(F)F)c3)c(=O)c12)c1cscn1", "note": "[Compound 102]", "values": [{"measurement": "Emax", "value": "< 150", "unit": "%"}, {"measurement": "EC1.5 (concentration giving 150% activation)", "value": "< 5", "unit": "µM"}]}]}
